The values below come from article PMC7697705, “Design, Synthesis and Biological Evaluation of (2′,5′ and 3′5′-Linked) cGAMP Analogs that Activate Stimulator of Interferon Genes (STING)” (Molecules, 2020).

Each structure is given as a SMILES string. Read-outs that look alike come from different tables or passages of the source.

The target in assay [1] is T1, human STING (Homo sapiens, UniProt Q86WV6).
T1 construct: N-terminal cysteine (thiol coupling handle)
As to the kind of experiment: surface plasmon resonance (SPR)-based hSTING binding assay. The note with it: for kon: read-out: Ka; for Kd: KD = Kd/Ka. An excerpt: Direct measurement of affinity constants provide assistance in pharmacokinetic and pharmacodynamic studies. In this study, we evaluated the binding affinities between human STING and the synthesized CNDs by the surface plasmon resonance (SPR)-based assay, which loaded minuscule amounts of STING protein on a biosensor chip, and free-labeled samples were directly detected in short measurement times.
hSTING was firstly immobilized on a CM5 sensor chip via a N-terminal cysteine thiol group, without altering conformation or binding activity. […] Kinetic parameters generally give both an aggregation constant (ka) and a disaggregation constant (kd), from which the equilibrium dissociation constant KD can be calculated by KD = Kd/Ka.
SPR system was primed using the manufacturer’s HEPES-buffered saline at 25 °C. CM5 chips were warmed to room temperature on the bench before being added to the system. SPR surfaces were cleaned and conditioned (separate injections of 50 mM NaOH, 1 M NaCl, 0.1% SDS and 10 mM HCl, each for 60 s at 10 μL/min) prior to normalization using the manufacturer’s 70% glycerol solution (GE Healthcare). STING was prepared at 100 μg/mL in SPR running buffer with no DMSO and injected twice onto channel 2 for 600 s at 5 μL/min.
Cyclic dinucleotides were prepared to 1-mM stocks in SPR running buffer. A 12-concentrations dilution series, including a blank containing no substrate, were made and diluted in a 96-well polypropylene Greiner plate. Plates were spun and then placed at 4 °C until experimentation. Experiments were performed at 60 μL/min with data collected every 0.1s.

Assay [2] deals with THP-1 cells. The assay is described as follows: IFN-β production in THP-1 cells by ELISA. The following applies: 1 μM, 18 h. In general terms: In an ELISA, binding on a coated surface is turned into a signal by an enzyme label.
Procedure: The IFN-β levels in the cell culture supernatants were measured using the ELISA kits (Meimian Biotechnology, Jiangsu, China), according to the manufacturer’s instructions.
The mark [3] stands for this setting: SPR, hSTING immobilized on CM5 chip, 25 °C.

T1 sequence (Q86WV6 whole entry): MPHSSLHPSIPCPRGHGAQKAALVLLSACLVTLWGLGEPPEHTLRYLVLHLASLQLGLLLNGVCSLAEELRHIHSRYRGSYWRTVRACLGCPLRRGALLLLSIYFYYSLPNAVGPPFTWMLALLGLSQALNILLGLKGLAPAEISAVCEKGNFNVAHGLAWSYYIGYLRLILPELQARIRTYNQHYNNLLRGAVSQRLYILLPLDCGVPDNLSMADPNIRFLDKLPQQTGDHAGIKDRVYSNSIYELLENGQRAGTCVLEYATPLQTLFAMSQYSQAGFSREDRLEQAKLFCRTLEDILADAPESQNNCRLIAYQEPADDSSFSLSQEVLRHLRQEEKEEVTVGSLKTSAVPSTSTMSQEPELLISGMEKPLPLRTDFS

For the compound `Cc1cn([C@@H]2O[C@@H]3COP(=O)(O)O[C@@H]4[C@H](O)[C@@H](COP(=O)(O)O[C@H]3[C@H]2O)O[C@H]4n2cnc3c(=O)[nH]c(N)nc32)c(=O)[nH]c1=O` [Compound 8a, 2′,3′-cyclic-guanosine-5-methyluridine], in assay [1] (setting [3]), the “dissociation rate constant koff” value was found to be 0.002649 s⁻¹ and the kon was determined as 349 M⁻¹ s⁻¹. In addition, the Kd – broadly, the constant that tells how readily two partners part at equilibrium – in assay [1] (SPR) stood at 7.58 µM.
On to `Cc1cn([C@@H]2O[C@@H]3COP(O)(=S)O[C@@H]4[C@H](O)[C@@H](COP(O)(=S)O[C@H]3[C@H]2O)O[C@H]4n2cnc3c(=O)[nH]c(N)nc32)c(=O)[nH]c1=O` (stereo partly shown) [Compound 8b, 2′,3′-cyclic-guanosine(PS)-5-methyluridine(PS)], for which the “production of IFN-β (ELISA)” value in assay [2] was “more IFN-β than the corresponding phosphodiester analogs”. Further, the “dissociation rate constant koff” value in assay [1] (setting [3]) amounted to 0.0001339 s⁻¹. Also, the kon in assay [1] was found to be 233 M⁻¹ s⁻¹.
On to `Cc1cn(C2OC3COP(=O)(O)OC4C(O)C(COP(=O)(O)OC3C2O)OC4n2cnc3c(=O)[nH]c(N)nc32)c(=O)nc1N` (stereo not shown) [Compound 8c, 2′,3′-cyclic-guanosine-5-methylcytidine], for which, in assay [1] (setting [3]), the “dissociation rate constant koff” value was 1.397e-05 s⁻¹ and the kon amounted to 152 M⁻¹ s⁻¹. The affinity in assay [1] (SPR), expressed as Kd, was 0.092 µM.
Turning to `Cc1cn([C@@H]2O[C@@H]3COP(=O)(O)O[C@H]4[C@@H](O)[C@H](n5cnc6c(N)ncnc65)O[C@@H]4COP(=O)(O)O[C@@H]2[C@@H]3O)c(=O)[nH]c1=O` [Compound 12a, 2′,3′-cyclic-5-methyluridine-adenosine], in assay [1] (setting [3]), the “dissociation rate constant koff” value was 0.002431 s⁻¹ and the kon is 208 M⁻¹ s⁻¹. Moreover, in assay [1] (SPR), the dissociation constant (Kd) was 11.7 µM.
With `Cc1cn([C@@H]2O[C@@H]3COP(O)(=S)O[C@H]4[C@@H](O)[C@H](n5cnc6c(N)ncnc65)O[C@@H]4COP(O)(=S)O[C@@H]2[C@@H]3O)c(=O)[nH]c1=O` (stereo partly shown) [Compound 12b, 2′,3′-cyclic-5-methyluridine(PS)-adenosine(PS)], the “production of IFN-β (ELISA)” value in assay [2] is “more IFN-β than the corresponding phosphodiester analogs”. Also, in assay [1] (setting [3]), the “dissociation rate constant koff” value was determined as 0.0009865 s⁻¹ and the kon turned out to be 289 M⁻¹ s⁻¹. Moreover, binding in assay [1] (SPR) was put at a Kd of 3.41 µM.
As for `Cc1cn([C@@H]2O[C@@H]3COP(=O)(O)O[C@H]4[C@@H](O)[C@H](n5cnc6c(N)ncnc65)O[C@@H]4COP(=O)(O)O[C@@H]2[C@@H]3O)c(=O)nc1N` [Compound 12c, 2′,3′-cyclic-5-methylcytidine-adenosine], in assay [1] (setting [3]), the “dissociation rate constant koff” value was 0.0007331 s⁻¹ and the kon was 198 M⁻¹ s⁻¹. This compound also showed a Kd in assay [1] (SPR) of 3.7 µM.
